This is an account of results in ChEMBL document CHEMBL5226357, “Engineering Selectivity for Reduced Toxicity of Bacterial Kinase Inhibitors Using Structure-Guided Medicinal Chemistry” (ACS Med Chem Lett, 2021).

pIC50, pKd, pKi: −log10 of the molar value. In brackets after ≈: the same amount, converted by molar mass. Where only a bound is given, the exact number is not on record here.

Data set [1] deals with T1, Serine/threonine-protein kinase PknB (Mycobacterium tuberculosis, UniProt P9WI81).
T1 sequence (P9WI81 whole entry): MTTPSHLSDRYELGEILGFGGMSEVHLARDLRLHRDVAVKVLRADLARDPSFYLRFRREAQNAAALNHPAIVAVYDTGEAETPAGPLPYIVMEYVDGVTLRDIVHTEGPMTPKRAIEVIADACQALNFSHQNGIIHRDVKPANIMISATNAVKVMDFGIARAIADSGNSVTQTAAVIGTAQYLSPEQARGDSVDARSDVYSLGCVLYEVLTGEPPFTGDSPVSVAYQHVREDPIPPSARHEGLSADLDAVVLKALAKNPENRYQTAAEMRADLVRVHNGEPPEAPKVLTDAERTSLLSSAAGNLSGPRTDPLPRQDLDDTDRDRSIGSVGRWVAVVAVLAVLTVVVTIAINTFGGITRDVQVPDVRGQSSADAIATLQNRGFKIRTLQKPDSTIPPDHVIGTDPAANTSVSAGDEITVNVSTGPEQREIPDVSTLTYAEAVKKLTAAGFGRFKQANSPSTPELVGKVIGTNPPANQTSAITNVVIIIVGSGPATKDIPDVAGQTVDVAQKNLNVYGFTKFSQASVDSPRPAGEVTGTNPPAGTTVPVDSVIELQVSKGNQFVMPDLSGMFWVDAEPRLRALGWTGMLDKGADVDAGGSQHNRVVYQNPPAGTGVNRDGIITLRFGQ
Put plainly: Inhibition of Mycobacterium tuberculosis recombinant PknB (1 to 331 residues) expressed in Escherichia coli BL21-Rosetta cells using GarA and ATP as substrate preincubated with enzyme for 10 mins followed by substrate addition and measured after 1 hr by ATP-competitive biochemical assay.

For data set [2], the target named is T1, Serine/threonine-protein kinase PknB. In words: Binding affinity to Mycobacterium tuberculosis recombinant N-terminal His-tagged PknB (1 to 331 residues) expressed in Escherichia coli DH5alpha cells by microscale thermophoresis analysis.
Data set [3] has as its target Cyclin-dependent kinase 2/cyclin A (Homo sapiens, UniProt P24941). In words: Inhibition of human Cdk2/Cyclin A using Myelin basic protein as substrate by ATP competitive assay. In kind it is toxicity.
For data set [4], the system named is Mycobacterium tuberculosis. In words: Antimycobacterial activity against Mycobacterium tuberculosis H37Ra ATCC 25177 assessed as inhibition of bacterial growth incubated for 12 days by Alamar Blue based fluorescence analysis. In kind it is functional. The note with it: H37Ra ATCC 25177, 288 h, time 12 day.
Data set [5] in a line: Lipophilicity, logD of the compound in octanol and phosphate buffer at pH 7.4 at 66.7 uM by LC-MS/MS analysis. In kind it is physicochemical. As to conditions: octanol/water, pH 7.4, 66.7 µM.
The subject of data set [6] is THP-1. Put plainly: Cytotoxicity against human THP-1 cells assessed as reduction in cell viability incubated for 72 hrs by CellTiter-Glo luminescent assay. In kind it is toxicity, cell-based. The note with it: thp-1, 72 h.
Data set [7] can be described thus: Toxicity against Zebrafish embryo assessed as embryo survival at 5 uM incubated for 5 days and measured daily. Also noted: species or system Danio rerio. As to conditions: zebrafish embryos, time 5 day.
For data set [8], the target named is T1, Serine/threonine-protein kinase PknB. In words: Binding affinity to Mycobacterium tuberculosis partial length PknB (M1 to G279 residues) expressed in mammalian expression system by KdELECT kinase assay.
Data set [9] concerns the target CDK4/Cyclin D3 (Homo sapiens, UniProt P11802). In words: Binding affinity to human full length CDK4 (M1 to E303 residues) expressed in mammalian expression system/CyclinD3 by KdELECT kinase assay. In kind it is toxicity.
The target in data set [10] is Glycogen synthase kinase-3 beta (Homo sapiens, UniProt P49841). In words: Binding affinity to human full length GSK-3 beta (M1 to T433 residues) expressed in mammalian expression system by KdELECT kinase assay. The class given is toxicity.
Data set [11] concerns the target Serine/threonine-protein kinase mTOR (Homo sapiens, UniProt P42345). Put plainly: Binding affinity to human partial length mTOR (L1382 to W2549 residues) expressed in mammalian expression system by KdELECT kinase assay. In kind it is toxicity.
Data set [12] has as its target Serine/threonine-protein kinase pim-1 (Homo sapiens, UniProt P11309). In words: Binding affinity to human partial length Pim1 (A15 to K313 residues ) expressed in bacterial expression system by KdELECT kinase assay. In kind it is toxicity.
Data set [13] can be described thus: Selectivity ratio of Kd for human full length CDK4 (M1 to E303 residues) expressed in mammalian expression system/CyclinD3 to Kd for Mycobacterium tuberculosis partial length PknB (M1 to G279 residues) expressed in mammalian expression system.
Data set [14] is described as follows: Selectivity ratio of Kd for human full length GSK-3 beta (M1 to T433 residues) expressed in mammalian expression system to Kd for Mycobacterium tuberculosis partial length PknB (M1 to G279 residues) expressed in mammalian expression system.
Data set [15] can be described thus: Selectivity ratio of Kd for human partial length mTOR (L1382 to W2549 residues) expressed in mammalian expression system to Kd for Mycobacterium tuberculosis partial length PknB (M1 to G279 residues) expressed in mammalian expression system.
Data set [16] can be described thus: Selectivity ratio of Kd for human partial length Pim1 (A15 to K313 residues ) expressed in bacterial expression system to Kd for Mycobacterium tuberculosis partial length PknB (M1 to G279 residues) expressed in mammalian expression system.

In the case of `CN1CCN(c2ccc(Nc3nccc(-c4ccc(Cl)cc4)n3)cc2C(F)(F)F)CC1`, the pIC50 in data set [1] was 5.09; in data set [3], less than 4.40. Further, the pKi in data set [1] is 5.62. Besides, the pKd in data set [2] is 5.66.
Turning to `Cc1ccc(-c2ccnc(Nc3ccc(N4CCN(C)CC4)c(C(F)(F)F)c3)n2)cc1`, the pIC50 is 5.80 in data set [1] and less than 4.40 in data set [3]. The pKi in data set [1] is 6.36. The pKd in data set [2] was 7.52. For the same compound, in data set [4], the MIC amounted to 12 µM (≈ 5.13 µg/mL). Also, the logD in data set [5] was greater than 5.85. Besides, the CC50 in data set [6] stood at 4.94 µM. Also, the survival at 120 h, 5 µM in [7] was 0%.
For the compound `CN1CCN(c2ccc(Nc3nccc(-c4ccc([N+](=O)[O-])cc4)n3)cc2C(F)(F)F)CC1`, in data set [1], the pIC50 was 5.42 and the pKi was 5.96. Besides, in data set [2], the pKd is 6.39. Besides, the pIC50 in data set [3] is 6.74.
For `CN1CCN(c2ccc(Nc3nccc(-c4cccc(F)c4)n3)cc2C(F)(F)F)CC1` the same measures were 5.21, 5.74, 6.15 and 4.62.
Turning to `CN1CCN(c2ccc(Nc3nccc(-c4cccc(Cl)c4)n3)cc2C(F)(F)F)CC1`, the pIC50 in [1] is 5.37; in data set [3], less than 4.40. In [1], the negative logarithm of the Ki (pKi) was 5.92. Moreover, the pKd in [2] was 6.47; in data set [8] it was 6.74; in [9], 5.52; in [10] it was 5.03; in data set [11] it was less than 5.00; in data set [12], less than 5.00. Besides, the MIC in [4] is 12 µM (≈ 5.37 µg/mL). In [5], this compound had a logD greater than 6. The CC50 in data set [6] amounted to 5.28 µM. Further, the survival at 120 h, 5 µM in data set [7] came out at 57%.
Take `CNc1cc(-c2ccnc(Nc3ccc(N4CCN(C)CC4)c(C(F)(F)F)c3)n2)ccn1`: in data set [1], the pIC50 is 5.03 and the pKi was 5.57. The pKd in data set [2] was 6.04. Besides, the pIC50 in data set [3] was 4.41.
Turning to `CN1CCN(c2ccc(Nc3nccc(-c4ccccc4)n3)cc2C(F)(F)F)CC1`, the negative-log IC50 (pIC50) is 5.34 in data set [1] and less than 4.40 in data set [3]. The pKi in data set [1] is 5.89. The negative-log Kd (pKd) in [2] was 5.92; in data set [8] it was 6.37; in [9] it was 5.92; in [10], 5.55; in data set [11], less than 5.00; in data set [12], 5.28. The MIC in data set [4] worked out at 25 µM (≈ 10.3 µg/mL). Besides, the logD in [5] is recorded as 4.8. In addition, in data set [6], the CC50 is 4.1 µM. Further, the survival at 120 h, 5 µM in [7] amounted to 96%.
`CN1CCN(c2ccc(Nc3nccc(-c4cccc([N+](=O)[O-])c4)n3)cc2C(F)(F)F)CC1`: the negative logarithm of the IC50 (pIC50) is 5.92 in data set [1] and less than 4.40 in data set [3]. In addition, the pKi in data set [1] is 6.49. For the same compound, the pKd in [2] is 7.47; in data set [8] it was 7.72; in data set [9], 6.04; in data set [10], 5.42; in data set [11], 5.24; in data set [12] it was 5.66. The Selectivity ratio in [13] was 48; in data set [14] it was greater than 100; in data set [15], greater than 100; in data set [16], greater than 100. For the same compound, the minimal inhibitory concentration (MIC) in [4] stood at 19 µM (≈ 8.71 µg/mL). In data set [5], this compound had a logD of 4.5. In addition, the CC50 in [6] turned out to be 3.89 µM. Besides, the survival at 120 h, 5 µM in data set [7] turned out to be 0%.
As for `CN1CCN(c2ccc(Nc3nccc(-c4ccc5ccccc5c4)n3)cc2C(F)(F)F)CC1`, in data set [1], the negative-log IC50 (pIC50) is 5.47 and the pKi was 6.01. In addition, the pKd in data set [2] is 6.37. In addition, the pIC50 in [3] was less than 4.40. Further, the MIC in data set [4] amounted to 6 µM (≈ 2.78 µg/mL). The compound also displayed a logD in [5] greater than 5.7. Further, in data set [6], the CC50 was 3.04 µM. In addition, in [7], the survival at 120 h, 5 µM was 100%.
Consider `CN1CCN(c2ccc(Nc3nccc(-c4cccnc4)n3)cc2C(F)(F)F)CC1`, for which the pIC50 in data set [1] is 5.77; in [3] it was 5.03. In addition, the pKi in data set [1] was 6.33. For the same compound, the pKd in [2] was 7.21. The MIC in data set [4] was found to be 100 µM (≈ 41.4 µg/mL). Besides, in data set [5], the pH-dependent lipophilicity (logD) was 3.53. For the same compound, in [6], the CC50 came to 1.06 µM. Also, in data set [7], the survival at 120 h, 5 µM worked out at 56%.
For `CN1CCN(c2ccc(Nc3nccc(-c4ccc(C#N)cc4)n3)cc2C(F)(F)F)CC1`, in [1], the pIC50 is 5.29 and the negative logarithm of the Ki (pKi) is 5.82. Further, the pKd in data set [2] is 6.15. For the same compound, the pIC50 in data set [3] is 4.89.
Taken in the same sequence, the figures for `CN1CCN(c2ccc(Nc3nccc(-c4cccc(C#N)c4)n3)cc2C(F)(F)F)CC1` were 5.60, 6.15, 7.14 and less than 4.40.
Taken in the same sequence, the figures for `CN1CCN(c2ccc(Nc3nccc(-c4ccnc(NCc5ccccc5)c4)n3)cc2C(F)(F)F)CC1` were 5.10, 5.64, 5.68 and 5.14.
Take `CN1CCN(c2ccc(Nc3nccc(-c4ccc(F)cc4)n3)cc2C(F)(F)F)CC1`: the pIC50 in data set [1] was less than 4.40; in data set [3], 4.92. For the same compound, the pKi in data set [1] is less than 4.92. In data set [2], the pKd was 5.52.
With `CN1CCN(c2ccc(Nc3nccc(-c4ccnc(Cl)c4)n3)cc2C(F)(F)F)CC1`, the pIC50 in data set [1] is 5.96; in data set [3], 5.14. Besides, the pKi in data set [1] was 6.54. Besides, the negative logarithm of the Kd (pKd) in data set [2] was 7.32; in data set [8], 7.33; in data set [9], 6.36; in data set [10], 5.59; in data set [11], 6.16; in [12], 5.66. Further, in [4], the MIC was 25 µM (≈ 11.2 µg/mL). Further, the logD in data set [5] worked out at 4.3. In data set [6], the CC50 worked out at 1.14 µM. The survival at 120 h, 5 µM in data set [7] was 89%.
On to `COc1cccc(-c2ccnc(Nc3ccc(N4CCN(C)CC4)c(C(F)(F)F)c3)n2)c1`, for which the pIC50 in [1] was 5.18; in data set [3], 5.00. Also, the pKi in data set [1] is 5.72. Moreover, in data set [2], the pKd is 6.18.
